Values after ≈ are worked out from the molar mass of the structure shown. Like-named read-outs stand apart in the source and are kept apart here.
How the values were obtained:
[1] = Cytotoxicity in MT-4 cells, MTT method; conditions: human
[2] = system: HIV-1 IIIB; assay: Anti-HIV-1 activity in MT-4 cell culture (P24 antigen); assay type: cell-based
[3] = Solubility of the drugs to be tested; assay type: physicochemical
Procedure: During the test, the solution was dissolved by DMSO to suitable concentration, diluted by culture medium, and immediately added into cell culture.

[4] = system: HCV; assay: Anti-HCV activity, HCV-RNA by automatic PCR ELISA; assay type: cell-based
Procedure: The HCV replication cells (Avva.5) were cultivated in the Dulbecco's improved Eagle medium containing 10% fetal calf serum and 1 mg/ml G418. 293-Sip-L cells were cultivated in the Dulbecco's improved Eagle medium containing 10% fetal calf serum, 250 μg/ml G418 and 150 μg/ml hygromycin B.
Using Petri culture dish in a diameter of 60 mm, the cells were cultivated in a positive culture medium containing 100 μl of HCV for 12 hours. Then, the cells were cultivated in the fresh medium containing on HCV and the medium was replaced once everyday. When detecting HCV-RNA 7 days after the cells have been infected with HCV, it is necessary to clean the cells using the Dulbecco's improved Eagle medium in trypsinization and centrifugation methods. The upper layer part cleaned for the second time (used for comparison) and the washed cells were collected for RNA extraction and RT-PCR detection. β-actin mRNA was simultaneously determined for the purpose of comparison.
The quantitative determination on HCV-RNA is performed in automatic PCR Enzyme-linked immunosorbent assay (ELISA). (Edition 2.0, Roche Diagnostics, Branchburg, N.J.)
HCV-NA level was determined in automatic PCR ELISA.

[5] = system: HBV DNA; assay: HBV DNA in Hep G2.2.15 cell supernatant, fluorescent quantitative PCR; assay type: cell-based, hepatitis B virus; conditions: for HBV DNA copy number / Inhibition ratio (%): cell supernatant
[6] = system: VSVG/HIV-luc; assay: Pharmacological model of wild type HIV-1 replication (VSVG/HIV-luc, Cell 293); assay type: cell-based
[7] = system: Hep G2.2.15; assay: Cytotoxicity on Hep G2.2.15 (MTT); assay type: cell-based, human; conditions: for Cell Survival Rate: MTT
[8] = MT-4 cells infected with HIV-1 IIIB
[9] = Human immunodeficiency virus 1, MT4, 96 h, HIV-1 IIIB in MT-4 cell culture, 4 days, read-out: IC50
[10] = Human immunodeficiency virus 1, IIIB, MT4, 96 h
[11] = 0.06 μg/ml in the cell supernatant
[12] = 0.6 μg/ml in the cell supernatant
[13] = 6 μg/ml in the cell supernatant
[14] = Human immunodeficiency virus 1, VSVG/HIV-luc, Cell 293, read-out: Remarks IC50

SMILES	CC50 at 4 days [1, 8] [µg/mL]	CC50 at 4 days ([1]; uninfected MT-4 cells) [µg/mL]	IC50 [2, 9] [ng/mL]	Solubility in DMSO [3]	Solubility in water [3]	also measured
Cc1cn([C@H]2C[C@H](N=[N+]=[N-])[C@@H](CO)O2)c(=O)[nH]c1=O [AZT, Zidovudine, reference compound]	> 0.625	> 0.625	0.182 (≈ 0.000681 µM)	–	–	–
Cc1ccnc2c1NC(=O)c1cccnc1N2C1CC1 [NVP, Nevirapine, reference compound]	> 12.5	> 12.5	3.64 (≈ 0.0137 µM)	–	–	–
[N-]=[N+]=NC1(CO)OC(n2cc(F)c3c(N)ncnc32)C(F)C1O (stereo not shown) [Compound 50]	28.3 (≈ 86.5 µM)	27.9 (≈ 85.3 µM)	2300 (≈ 7.03 µM)	DMSO-soluble	water-insoluble	–
C#CC1(CO)OC(n2cc(F)c3c(N)ncnc32)C(F)C1O (stereo not shown) [Compound 52]	41.3 (≈ 133 µM)	38.6 (≈ 124 µM)	133 (≈ 0.429 µM)	DMSO-soluble	water-insoluble	–
CC1(CO)OC(n2ccc(O)nc2=O)C(F)C1O (stereo not shown) [Compound 9]	31.2 (≈ 120 µM)	30.1 (≈ 115 µM)	–	DMSO-soluble	water-insoluble	IC50 [2, 10]: 162 ng/mL (≈ 0.623 µM)
[N-]=[N+]=NC1(CO)OC(n2ccc(O)nc2=O)C(F)C1O (stereo not shown) [Compound 17]	–	–	–	–	–	Inhibition effect Test 1 (HCV-RNA level) [4, 11]: 4.9 × 10^2; Inhibition effect Test 2 (HCV-RNA level) [4, 11]: 4.1 × 10^2; Inhibition effect Test 1 (HCV-RNA level) [4, 12]: 0.92 × 10^2; Inhibition effect Test 2 (HCV-RNA level) [4, 12]: 0.78 × 10^2; Inhibition effect Test 1 (HCV-RNA level) [4, 13]: 1.1 × 10^2; Inhibition effect Test 2 (HCV-RNA level) [4, 13]: 0.81 × 10^2; Inhibition effect on HCV (in words) ([4]; 6 μg/ml, 0.6 μg/ml or 0.06 μg/ml): relatively strong inhibition effect; HBV DNA copy number ([5]; 100 μg/L): 19.2 *10^5; Inhibition ratio (%) ([5]; 100 μg/L): 40.6%; HBV DNA copy number ([5]; 500 μg/L): 14.3 *10^5; Inhibition ratio (%) ([5]; 500 μg/L): 52.2%; HBV DNA copy number ([5]; 1000 μg/L): 10.2 *10^5; Inhibition ratio (%) ([5]; 1000 μg/L): 67.9%
C#CC1(CO)OC(n2ccc(N)nc2=O)C(F)C1O (stereo not shown) [Compound 1]	43.6 (≈ 162 µM)	40.9 (≈ 152 µM)	101 (≈ 0.375 µM)	DMSO-soluble	water-insoluble	IC50 [6, 14]: 500 nM
[N-]=[N+]=NC1(CO)OC(n2ccc(N)nc2=O)C(F)C1O (stereo not shown) [Compound 15]	> 100	> 100	–	DMSO-soluble	water-insoluble	Cell Survival Rate ([7]; 8 μg/ml): 98.7%; Cell Survival Rate ([7]; 40 μg/ml): 96.7%; Cell Survival Rate ([7]; 200 μg/ml): 85.5%; Cell Survival Rate ([7]; 1000 μg/ml): 82.6%; Toxicity (in words) ([7]; in vitro tests): less toxicity; IC50 ([6]; Human immunodeficiency virus 1, read-out: Remarks IC50): 1.5 nM; IC50 [2, 10]: 0.01 ng/mL (≈ 3.49e-05 µM); HBV DNA copy number ([5]; 0.016 μg/L): 18.9 *10^5; Inhibition ratio (%) ([5]; 0.016 μg/L): 41.0%; HBV DNA copy number ([5]; 0.08 μg/L): 13.5 *10^5; Inhibition ratio (%) ([5]; 0.08 μg/L): 57.8%; HBV DNA copy number ([5]; 0.4 μg/L): 10.3 *10^5; Inhibition ratio (%) ([5]; 0.4 μg/L): 67.8%; HBV DNA copy number ([5]; 2 μg/L): 5.21 *10^5; Inhibition ratio (%) ([5]; 2 μg/L): 83.7%; EC50 ([5]; Hepatitis B virus, HepG2.2.15, HBV DNA in Hep G2.2.15 supernatant): 0.00019 µg/mL (≈ 0.000664 µM); Effect on HBV DNA copy number (in words) ([5]; after administration, in vitro): significantly reduce
N#CC1(CO)OC(n2cnc3c(N)ncnc32)C(F)C1O (stereo not shown) [Compound 39]	38.3 (≈ 130 µM)	36.8 (≈ 125 µM)	1490 (≈ 5.06 µM)	DMSO-soluble	water-insoluble	–
C#CC1(CO)OC(n2cnc3c(F)ncnc32)C(F)C1O (stereo not shown) [Compound 19]	43.8 (≈ 148 µM)	39.8 (≈ 134 µM)	–	DMSO-soluble	water-insoluble	IC50 [6, 14]: 1000 nM; IC50 [2, 10]: 90 ng/mL (≈ 0.304 µM)
CC1(CO)OC(n2cnc3c(O)ncnc32)C(F)C1O (stereo not shown) [Compound 36]	35.1 (≈ 124 µM)	37.5 (≈ 132 µM)	127 (≈ 0.447 µM)	DMSO-soluble	water-insoluble	–
N#CC1(CO)OC(n2cc(F)c3c(O)ncnc32)C(F)C1O (stereo not shown) [Compound 46]	48.5 (≈ 155 µM)	55.4 (≈ 177 µM)	131 (≈ 0.42 µM)	DMSO-soluble	water-insoluble	–

Source: patent US8835615B2, “2′-fluorine-4′-substituted-nucleoside analogues, preparation methods and uses thereof” (priority 2007, dated 2014)
